Measurements taken from PubChem BioAssay (NCI).
Several values for one entry are separate records, joined by “and”; a condition that tells them apart may be missing. Equal values may be shown once.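 Step 1: Grow cells in 96-well plates. Step 2: Expose to compound for 48 hours at 5 concentrations. Step 3: Interpolate endpoints linearly; if unreached, use highest concentration. GI50: concentration for 50% inhibition of growth. The concentration for full growth arrest is given as TGI.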

Columns and labels:
Assay in all cases: NCI anticancer screen, dose series, 48 h
[1] = test system: A498 renal
[2] = test system: CAKI-1 renal
[3] = test system: CCRF-CEM leukemia
[4] = test system: DU-145 prostate
[5] = test system: HL-60(TB) leukemia
[6] = test system: HOP-62 NSCLC
[7] = test system: SF-539 CNS
[8] = test system: SW-620 colon
[9] = test system: EKVX NSCLC
[10] = test system: T-47D breast

SMILES | GI50 [1] | TGI [1] | GI50 [2] [µM] | TGI [2] | GI50 [3] | TGI [3] | GI50 [4] | TGI [4] [µM] | GI50 [5] | TGI [5] | GI50 [6] [µM] | TGI [6] | GI50 [7] [µM] | TGI [7] | GI50 [8] [µM] | TGI [8] | GI50 [9] | TGI [9] | GI50 [10] [µM] | TGI [10] [µM]
CCCc1cc(=O)[nH]c(-n2nc(C)cc2C)n1 | 11.7 µM | > 100 µM | 2.47 | 26.3 µM | 1.59 µM | 26.5 µM | 7.66 µM | > 100 | 2.04 µM | 20.7 µM | 5.58 | > 100 µM | 2.99 | > 100 µM | 3.93 | > 100 µM |  |  |  | 
C#CC1(O)C(COP(=O)(O)OC(COCCCCCCCCCCCCCCCCCC)COP(=O)(O)OCC2OC(n3cc(F)c(=O)[nH]c3=O)CC2O)OC(n2ccc(N)nc2=O)C1O (centres undefined) | 0.389 µM and 0.189 µM | 14 µM and 5.12 µM |  | 6.72 µM | 0.115 µM and 0.965 µM | 15.3 µM and > 70.6 µM | 0.274 µM and 0.0722 µM | > 100 | 0.0952 µM and 0.21 µM | 17.9 µM and 11.7 µM |  | > 86.5 µM and 33.9 µM |  | 12.2 µM and 22.3 µM |  | > 100 µM and 48.1 µM | 1.42 µM and 5.06 µM | > 35.2 µM and 71.4 µM |  | 
O=C1Nc2nc3ccccc3n2N=C2CCCC12 (centres undefined) |  | > 100 µM |  | > 100 µM |  | > 100 µM |  |  |  |  |  | > 100 µM |  | > 100 µM |  | > 100 µM |  | > 100 µM |  | 
O=c1oc(Cl)c(Cl)c2ccccc12 |  |  | 21.5 | 39.6 µM |  |  | 18.3 µM | 38.6 |  |  | 25.9 | 48.9 µM | 17 | 38.5 µM | 19.7 | 56.3 µM | 18.8 µM | 44.3 µM | 40.6 | > 100
NC(=O)c1ccc(I)c(N=O)c1 |  |  | 20 | 45.4 µM | 40.5 µM | > 100 µM | 43.7 µM | > 100 | 29 µM | 85.5 µM | 57.6 | > 100 µM | 32.3 | > 100 µM | 18.3 | 33.3 µM | 81.1 µM | > 100 µM | 32.3 | 87.8
COC1/C=C/C(C)C(C(C)C(OC)C(C)CCC(=O)C(C)C(C/C=C/N(C)C=O)OC)OC(=O)/C=C/C=C(\C)CC(OC)CC2=CC(=O)O[C@H](C2)C(C)C(OC)CC(OC)/C=C/C(C)C(OC)C1 (some centres undefined) | 0.0176 µM | 0.0508 µM | 0.00682 | 0.0308 µM and 0.0117 µM | 0.0218 µM | 0.0367 µM | 0.123 µM |  |  |  | 0.0178 | 0.0449 µM and 0.0169 µM |  |  | 0.0198 | 6.95 µM | 0.123 µM | 0.869 µM and 0.362 µM | 0.168 | 0.488
CC(=O)C(=Cc1ccc(C=C(C(C)=O)C(C)=O)cc1)C(C)=O |  | 9.03 µM |  | 4.75 µM |  |  |  | 11.9 |  | 4.52 µM |  | 6.38 µM |  | 4.03 µM |  | 1.83 µM |  | 8.76 µM |  | 8.49
COc1ccc(-c2nc(/C=N/Nc3cc(C)nc4ccc(Cl)cc34)c(C)o2)cc1 | 3.13 µM | 15.2 µM | 1.63 | 2.98 µM |  |  | 1.75 µM | 3.25 |  |  | 1.64 | 3.12 µM | 1.97 | 3.45 µM | 1.6 | 3.2 µM | 1.82 µM | 3.29 µM | 1.71 | 3.56
C[C@]12CCC(=O)C=C1CC[C@@H]1C2CC[C@]2(C)Nc3c(cnn3-c3ccccc3)CC12 (some centres undefined) |  | > 100 µM |  | > 100 µM |  | > 100 µM |  |  |  | > 100 µM |  | > 100 µM |  | > 100 µM |  | > 100 µM |  | > 100 µM |  | 
COC1OC(CBr)C(OC(=O)c2ccccc2)C(O)C1Br (centres undefined) |  | > 100 µM |  | > 100 µM |  | > 100 µM |  |  |  | > 100 µM |  | > 100 µM |  | > 100 µM |  | > 100 µM |  |  |  | 
O=C1C2C3C=C4c5ccccc5N(c5ccccc5)C4(C2C(=O)N1c1ccc(Cl)cc1)[C@H]1C(=O)N(c2ccc(Cl)cc2)C(=O)[C@@H]31 (some centres undefined) |  | > 100 µM |  | 76.3 µM |  | > 100 µM |  |  |  | > 100 µM |  | > 100 µM |  | > 100 µM |  | > 100 µM |  | > 100 µM |  | 
COC1=CC(c2ccc[nH]2)=N/C1=C\c1[nH]c(C)c(C(=O)CCCCC(=O)NC(C)(C)C)c1C | 2.93 µM | 10.8 µM | 1.39 | 4.43 µM | 0.526 µM |  | 1.69 µM | 3.79 | 1.91 µM | 4.06 µM | 1.74 | 5.02 µM | 3.27 | 9.94 µM | 0.947 | 2.26 µM | 1.96 µM | 13 µM |  | 
C1COCCN1.C1COCCN1.NC1CCCCC1N.[Cl-].[Pt+2] (centres undefined) | > 100 µM | > 100 µM | > 100 | > 100 µM | > 100 µM | > 100 µM |  |  | > 100 µM | > 100 µM | > 100 | > 100 µM | > 100 | > 100 µM | > 100 | > 100 µM | > 100 µM | > 100 µM |  | 
Cc1ccc(SSc2ccc(C)cc2C(=O)O)c(C(=O)O)c1 |  | > 100 µM |  | > 100 µM |  | > 100 µM |  |  |  | > 100 µM |  | > 100 µM |  | > 100 µM |  | > 100 µM |  | > 100 µM |  | 
O=C(N/C(=C/c1ccc(Cl)cc1Cl)c1nc2ccccc2s1)c1ccccc1 |  |  |  | 30 µM |  | > 100 µM |  | 31.5 |  | > 100 µM |  | 26.7 µM |  | 31.1 µM |  | 24.6 µM |  | 41 µM |  | 43.3
CCn1cc(C(=O)N/N=C/c2ccccc2)c(=O)c2cc(F)c(N3CCNC(C)C3)c(F)c21 (centres undefined) | 1.9 µM | 3.38 µM | 1.75 | 3.14 µM |  |  | 1.88 µM | 3.3 |  |  |  |  | 1.7 | 3.11 µM | 1.76 | 3.31 µM | 1.68 µM | 3.09 µM |  | 
Cc1cc(NCCCCCCNc2cc(C)nc3cc(N(C)C)ccc23)c2ccc(N(C)C)cc2n1 |  | > 100 µM |  | > 100 µM |  | > 100 µM |  |  |  | 8.52 µM |  | > 100 µM |  | > 100 µM |  | > 100 µM |  | > 100 µM |  | 
c1ccc(C(c2ccccc2)c2cccnc2)cc1 |  | > 100 µM |  | > 100 µM |  | > 100 µM |  |  |  |  |  | > 100 µM |  | > 100 µM |  | > 100 µM |  | > 100 µM |  | 
